Where two headings read alike, the source gives them in different places. Values belong to the molecule of their own block, whether it stands above or below them. Where a SMILES comes first, the peptide text is derived from it. Where no end group is shown, it is not given here. [ ]: non-standard residue; d: D form. Cya = N[C@@H](CS(=O)(=O)O)C(=O)O; Cit = NC(=O)NCCC[C@H](N)C(=O)O
Legend:
HLA-A*11:01 = HLA-A*11:01 (Homo sapiens, UniProt P04439, A114D/D185E/E176A/F33Y/L180Q/S129P/T187R); test: HLA-peptide competition binding assay, A*11:01; details: read-out: IC50 nM, target assay A*11:01
HLA-A*02:01 = HLA-A*02:01 (Homo sapiens, UniProt P04439, D140Y/D185E/D98H/E176V/E277Q/G131W/G231S/I119V/I121R/I166T/I218V/L300P/L318F/N151K/N90K/P208A/P217A/Q86G/Q94H/R138H/R169H/T345S); test: HLA-peptide competition binding assay, A*02:01
HLA-A*01:01 = HLA-A*01:01 (Homo sapiens, UniProt P04439, A114D/A174V/A182V/D101N/D185E/E176A/E190D/L180R/Q94H/R68K/S129P/T187R/V100A/V91M/W191G); test: HLA-peptide competition binding assay, A*01:01; details: read-out: IC50 nM, target assay A*01:01
HLA-A*03:01 = HLA-A*03:01 (Homo sapiens, UniProt P04439); test: HLA-peptide competition binding assay, A*03:01
HLA-A*24:02 = HLA-A*24:02 (Homo sapiens, UniProt P04439, D101N/D140Y/D185E/E176V/E190D/F33S/G103R/G107R/I119L/I121M/I306V/K335N/L105A/L180Q/L300P/N151K/N90K/Q86E/Q94H/R106L/R138H/R89G/T104I/T345S/V100E/W191G/Y123F); test: HLA-peptide competition binding assay, A*24:02; details: read-out: IC50 nM, target assay A*24:02
HLA-B*08:01 = HLA-B*08:01 (Homo sapiens, UniProt P01889, A93T/A95T/D138N/E176V/E187T/K202T/Q94N/R180D/S35A/V36M/Y33D/Y91F); test: biochemical
Experimental: The 138 peptides were tested for their capacity to bind their respective HLA class I restricting allele(s) in classical competition assays based on the inhibition of the binding of high affinity radiolabeled ligands to purified major histocompatibility (MHC) molecules, as described in the Methods. In instances where the precise restriction was not available, binding to the most common representative subtype from the same allele family was assayed (e.g., A*02:01 for A02; B*07:02 for B7; A*03:01 for A03, etc.). For epitopes reported to be restricted by multiple alleles, each restriction is shown separately.
Peptide-MHC affinities were measured using classical competition assays based on the inhibition of binding of a high affinity radiolabeled ligand to purified HLA class I molecules, as previously described. Briefly, 0.1–1 nM of radiolabeled peptide is co-incubated at room temperature with purified MHC in the presence of a cocktail of protease inhibitors. Following a two-day incubation, MHC bound radioactivity is determined by capturing MHC/peptide complexes on W6/32 (anti-HLA class I) mAb coated Lumitrac 600 plates (Greiner Bio-one, Frickenhausen, Germany), and bound cpm measured using the TopCount (Packard Instrument Co., Meriden, CT) microscintillation counter. […] Under the conditions utilized, where [label] < [MHC] and IC50 ≥ [MHC], measured IC50 values are reasonable approximations of true Kd. Each competitor peptide is tested at six different concentrations covering a 100,000-fold range, and in three or more independent experiments. As a positive control, the unlabeled version of the radiolabeled probe is also tested in each experiment.

HLA-B*07:02 = HLA-B*07:02 (Homo sapiens, UniProt P01889); test: HLA-peptide competition binding assay, B*07:02; details: read-out: IC50 nM, target assay B*07:02
[1] = read-out: A*02:01 binding (IC50 nM) WT
[2] = read-out: IC50 nM, target assay A*03:01
[3] = read-out: IC50 nM, target assay A*02:01
[4] = post-translationally modified insulin peptide, competition binding assay, a dash indicates IC50 >40,000 nM, read-out: A*02:01 binding (IC50 nM) Modified

- IC50 (HLA-A*11:01): 27200 nM
- IC50 (HLA-A*02:01; [1]): 23200 nM
- IC50 (HLA-A*01:01): > 40000 nM
- IC50 (HLA-A*03:01; [2]): 27400 nM
Molecule: LVCGERGFFY

- IC50 (HLA-A*01:01): > 40000 nM
- IC50 (HLA-A*24:02): 15100 nM
Molecule: ALWGPDPAAAF

- IC50 (HLA-A*02:01; unmodified (WT) insulin peptide, competition binding assay, a dash indicates IC50 >40,000 nM, read-out: A*02:01 binding (IC50 nM) WT): > 40000 nM
- IC50 (HLA-A*03:01; [2]): > 40000 nM
Molecule: ERGFFYTPK [reference compound]

- IC50 (HLA-A*02:01; [3]): 145 nM
- IC50 (HLA-A*24:02): 10200 nM
Molecule: RLLPLLALL [reference compound]

- IC50 (HLA-A*02:01; [1]): 3960 nM
- IC50 (HLA-A*01:01): 30300 nM
Molecule: GSHLVEALY [reference compound]

- IC50 (HLA-A*02:01; [1]): 266 nM
- IC50 (HLA-A*24:02): 545 nM
Molecule: LWMRLLPLL [reference compound]

- IC50 (HLA-A*11:01): 18300 nM
Molecule: RFKMFPEVK

- IC50 (HLA-A*11:01): > 40000 nM
Molecule: MFPEVKEKG

- IC50 (HLA-A*02:01; [4]): > 40000 nM
Molecule: CC[C@H](C)[C@H](NC(=O)CNC(=O)[C@H](CCCNC(N)=O)NC(=O)[C@H](CCCCN)NC(=O)[C@H](CCC(N)=O)NC(=O)[C@H](CC(C)C)NC(=O)[C@H](CO)NC(=O)CNC(=O)[C@H](CCC(=O)O)NC(=O)[C@@H](N)CC(C)C)C(=O)O (H-LEGSLQK[Cit]GI-OH; N-terminus and C-terminus assumed)

The remaining lines, values behind:

Molecule: GERGFFYT
- IC50 (HLA-A*01:01): > 40000 nM
- IC50 (HLA-B*08:01): 1.38 µM

Molecule: ALYLVCGER
- IC50 (HLA-A*11:01): 28300 nM
- IC50 (HLA-A*02:01): 1790 nM
- IC50 (HLA-A*03:01): 2790 nM

Molecule: SASVQRADTSL
- IC50 (HLA-B*07:02): 11 nM

Molecule: WMRLLPLLAL [WMRLLPLLAL, reference compound]
- IC50 (HLA-A*02:01): 654 nM
- IC50 (HLA-B*07:02): 2360 nM

Molecule: PLALEGSLQK
- IC50 (HLA-A*03:01): > 40000 nM

Molecule: ALWMRLLPL [reference compound]
- IC50 (HLA-A*02:01; [3]): 218 nM
- IC50 (HLA-B*08:01): 0.107 µM

Molecule: PLLALLALWG
- IC50 (HLA-A*03:01; [2]): > 40000 nM

Molecule: CC(C)C[C@H](NC(=O)[C@H](Cc1ccc(O)cc1)NC(=O)[C@@H](N)CC(C)C)C(=O)N[C@H](C(=O)N[C@@H](CS)C(=O)NCC(=O)N[C@@H](CCC(=O)O)C(=O)N[C@@H](CCCNC(=N)N)C(=O)NCC(=O)N[C@@H](Cc1ccccc1)C(=O)O)C(C)C [reference compound]
- IC50 (HLA-A*02:01; [1]): 13400 nM
- IC50 (HLA-A*24:02): 5250 nM

Molecule: APVIKARMM
- IC50 (HLA-B*07:02): 18200 nM

Molecule: SLQPLALEG [reference compound]
- IC50 (HLA-A*02:01; [3]): > 40000 nM
- IC50 (HLA-A*03:01; [2]): > 40000 nM

Molecule: ALWMRLLPLL
- IC50 (HLA-A*02:01; [3]): 190 nM
- IC50 (HLA-A*24:02): 6180 nM
- IC50 (HLA-B*08:01): 0.033 µM

Molecule: IPSDLERRIL
- IC50 (HLA-B*07:02): 3860 nM

Molecule: CC(C)C[C@H](NC(=O)[C@H](CCC(N)=O)NC(=O)[C@H](CC(N)=O)NC(=O)[C@H](Cc1ccccc1)NC(=O)[C@H](Cc1ccc(O)cc1)NC(=O)[C@H](CCCNC(=N)N)NC(=O)[C@@H]1CCCN1C(=O)[C@@H](N)Cc1c[nH]cn1)C(=O)N[C@@H](CO)C(=O)N[C@H](C(=O)O)[C@@H](C)O
- IC50 (HLA-B*07:02): 1250 nM

Molecule: LVEALYLVC
- IC50 (HLA-A*02:01): 11800 nM

Molecule: CC(C)C[C@H](NC(=O)[C@H](Cc1c[nH]cn1)NC(=O)[C@@H](N)CCC(N)=O)C(=O)N[C@@H](CS(=O)(=O)O)C(=O)NCC(=O)N[C@@H](CO)C(=O)N[C@@H](Cc1c[nH]cn1)C(=O)N[C@@H](CC(C)C)C(=O)N[C@H](C(=O)O)C(C)C [QHLBGSHLV] (H-QHL[Cya]GSHLV-OH)
- IC50 (HLA-A*02:01; read-out: A*02:01 binding (IC50 nM) Modified): 37900 nM

Molecule: VDEHLCGSHL
- IC50 (HLA-A*02:01; [4]): > 40000 nM

Molecule: ERGYYYTPKT
- IC50 (HLA-A*02:01; post-translationally modified insulin-derived peptide, radiolabeled ligand competition, purified MHC, two-day incubation, three or more independent experiments, read-out: A*02:01 binding, Modified): 5730 nM

Molecule: HLSYHWLLPL [reference compound]
- IC50 (HLA-A*02:01; [3]): 3820 nM
